Laboratory results: patent EP4324461A1, “(E)-N-CINAMOYLAMINOALKANOLES WITH MELANOGENESIS INHIBITORY ACTIVITY” (UNIWERSYTET JAGIELLONSKI, priority 2022, dated 2024)
Read-outs that look alike come from different tables or passages of the source.

Columns and labels:
S. typhimurium TA98 = assay: Ames microplate test, TA98; assay type: cell-based, Salmonella typhimurium; details: without S9;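 also: reference level is the mean solvent-control yellow wells plus SD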
Procedure: (§1) Bacteria were grown overnight in growth medium.
(§2) Table 9. Ames microplate test results.

S. typhimurium TA100 = assay: Ames microplate test, TA100; assay type: cell-based, Salmonella typhimurium; details: without S9;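 also: reference level is the mean solvent-control yellow wells plus SD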
Procedure: as §1, §2

[1] = system: B16-F10 murine melanoma cell line; assay: Cytotoxicity in B16-F10 cells (MTT); assay type: cell-based; details: 48 h
Procedure: In order to determine safe doses of compounds for testing the inhibition of melanogenesis in a murine melanoma cell line, cytotoxicity tests were performed. Cytotoxicity was determined by the colorimetric method using MTT ([3-(4,5-dimethyl-2-thiazolyl)-2,5-diphenyl-2H-tetrazolium bromide, Sigma M5655). For this purpose, cells were transferred to 96-well plates in an amount of 5000/well. After 24 h of culture in an incubator in F 10-Ham medium with 1% FBS, the tested compounds at various concentrations were added to the wells together with fresh medium. DMSO was added to the medium in a negative control. The MTT test was performed after further culture for 48 h. Then the medium was removed and the formed formazan crystals were dissolved in DMSO. The absorbance was measured at 570 nm in a plate reader and the result was compared to the control (DMSO), which was 100%. The percentage of viability was calculated using the formula: [AT/AC^∗100], where AT is the absorbance of the test sample, AC - absorbance of the control sample. Table 3. Results of inhibiting the activity of monophenolase […] tyrosinase and cytotoxicity testing in B16F10 cells for the described compounds.

S. typhimurium TA1535 = assay: Ames microplate test, TA1535; details: without S9;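 also: bacteria exposed to compound 90 min at 37 °C, then kept 48 h at 37 °C with indicator medium in 384-well plates, scoring wells that turned yellow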
Procedure: (§3) The study used the Ames microplate test (Ames MPF™ Penta 2 by Xenometrix, Allschwil, Switzerland). Growth medium, exposure medium, indicator medium, positive controls, hepatic microsomal fraction, NADP, glucose-6-phosphate, Salmonella typhimurium and Escherichia coli strains were components of the purchased experimental kit. Bacteria were grown overnight in growth medium. They were then exposed to the test compound at the appropriate concentration in exposure medium without or with the rat microsomal fraction S9 in 24-well plates for 90 min at 37 °C with shaking. Then, indicator medium was added to the wells and pipetted into 384-well plates, which were incubated for 48 hours at 37 °C without shaking. Results were assessed by counting the wells in which the medium turned yellow for each experimental condition.

[2] = system: Chinese hamster ovary cell line (CHO-K1); assay: Genotoxicity in the micronucleus test in CHO-K1 cells; assay type: cell-based
tyrosinase from mushroom = assay: Inhibition of commercial mushroom tyrosinase (L-DOPA or L-tyrosine substrate); assay type: biochemical
Procedure: The following substrates were used for the enzymatic reaction: L-tyrosine and L-3,4-dihyroxyphenylalanine (L-DOPA). Both substrates were used in independent experiments. According to the literature, the use of L-DOPA enables the assessment of tyrosinase diphenolase activity, and L-tyrosine - the tyrosinase monophenolase activity. The determinations were performed in 96-well plates, in each well there was placed: 170 µL or 127.5 µL of 50 mM phosphate buffer (pH = 6.8) with tyrosinase (1U/well or 3U/well) and 10 µL of a solution of the tested compound in DMSO (the final concentration in the well was 500 µM, 250 µM or 125 µM). The negative control used 10 µL of pure solvent (DMSO). To initiate the reaction, an appropriate substrate was added: L-tyrosine (62.5 µL of solution in phosphate buffer) or L-DOPA (20 µL of solution in phosphate buffer). After a 25-minute incubation, the absorbance was measured at 475 nm using a microplate reader. The percentage of inhibition of tyrosinase activity was calculated using the formula: [(AC -AT)/AC] × 100, where AC - is the absorbance of the negative control, AT - is the absorbance of the sample containing the tested compound.

[3] = Lipophilicity coefficient RM0 by reversed phase thin layer chromatography; assay type: physicochemical; details: RP-18 TLC, methanol / 100 mM phosphate buffer pH = 7.4
Procedure: Confirmation of the identity and purity of the obtained compounds consisted in the registration and interpretation of ^1H NMR and ^13C NMR spectra (the spectra were recorded using an ECZR 500 MHz (JEOL) series FT-NMR spectrophotometer), as well as the registration and interpretation of LC-MS spectra (the spectra were recorded using Acquita UPLC system (Waters) coupled with a Waters TQD mass spectrometer). The melting point was measured using the open capillary method in the IA9300 device (Electrothermal). The lipophilicity coefficient RM0 was determined by reversed phase thin layer chromatography. In the study, aluminum plates 20x20 cm covered with modified silica gel RP-18 F254 (Merck) were used as the solid phase. The mobile phase consisted of solutions of methanol and 100 mM phosphate buffer (pH = 7.4), characterized by a variable methanol content ranging from 95 to 65% (v/v). The tested compounds were dissolved in methanol to obtain solutions with a concentration of 1 mg/mL. Then, 5 µL of the solutions prepared in this way were transferred to the starting line on aluminum plates, which were then placed in chromatographic chambers previously saturated with mobile phase vapors for at least 1 hour. All activities, including the development of chromatograms, were carried out at room temperature. After developing the chromatograms to approximately 1-2 cm from the end of the plate, the plates were dried and then the distance traveled by the tested compounds was visualized under UV light (λ = 254 nm). The experiment was performed in duplicate for the specified conditions. For all samples, Rf was calculated according to the formula Rf = a/b, where a - the distance traveled by the tested compound, b - the distance traveled by the mobile phase. Then, the RM parameter was calculated for all samples according to the formula RM = log(1/Rf - 1), obtaining a linear relationship between the RM values and the methanol concentration in the mobile phase. The logP coefficient was also calculated using the following computer programs: ACD/ChemSketch 2020.1.2 and ChemDraw 20.0.0.41. Table 2. The physicochemical data of the compounds are presented below

[4] = system: Chinese hamster ovary cell line (CHO-K1); assay: Cytotoxicity in CHO-K1 cells (MTT) before the micronucleus test; assay type: cell-based; details: 24 hours
Procedure: The assay was performed using a Chinese hamster ovary cell line (CHO-K1) purchased from the American Type Culture Collection (ATCC). The cells were cultured in F-12K medium with the addition of 10% fetal bovine serum (FBS) and antibiotics (streptomycin/penicillin) in an incubator at 37 °C and 5% CO2 concentration). Before the actual micronucleus test, a cytotoxicity assessment was performed to ensure that the actual test was performed only at safe concentrations. For this purpose, cells were transferred to 96-well plates and incubated with the tested compounds for 24 hours. After this time, the MTT test was performed and cell viability was assessed in comparison to the control group (cells cultured with DMSO at the same concentration as in the case of the tested samples).

E. coli WP2 = assay: Ames microplate test, E. coli WP2; details: without S9;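 also: bacteria treated 90 min at 37 °C in 24-well plates, then indicator medium dispensed to 384-well plates and incubated 48 h before yellow-well counting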
Procedure: as §3

S. typhimurium TA1537 = assay: Ames microplate test, TA1537; assay type: cell-based, Salmonella typhimurium; details: without S9;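 also: reference level is the mean solvent-control yellow wells plus SD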
Procedure: as §1, §2

[5] = L-DOPA, read-out: Tyrosinase inhibition with L-DOPA, IC50
[6] = L-tyrosine, read-out: Tyrosinase inhibition with L-tyrosine, IC50

CC(CO)NC(=O)/C=C/c1ccc(Cl)cc1 (stereo not shown) [Compound A-102, (2E)-3-(4-chlorophenyl)-N-(1-hydroxypropan-2-yl)prop-2-enamide]
Increase in the number of yellow wells compared to the reference level (S. typhimurium TA98; 0.5 mM): 0.24
Increase in the number of yellow wells compared to the reference level (S. typhimurium TA98; 1.0 mM): 0.24
Increase in the number of yellow wells compared to the reference level (S. typhimurium TA98; 2.0 mM): 0.35
Increase in the number of yellow wells compared to the reference level (S. typhimurium TA100; 0.5 mM): 1.08
Increase in the number of yellow wells compared to the reference level (S. typhimurium TA100; 1.0 mM): 0.75
Increase in the number of yellow wells compared to the reference level (S. typhimurium TA100; 2.0 mM): 0.92
Cytotoxicity study in B16F10 cells % viability ([1]; 150 µM): 80.6%
Cytotoxicity study in B16F10 cells % viability ([1]; 200 µM): 83.5%
Cytotoxicity study in B16F10 cells % viability ([1]; 250 µM): 75.7%
Increase in the number of yellow wells compared to the reference level (S. typhimurium TA1535; 0.5 mM): 0.55
Increase in the number of yellow wells compared to the reference level (S. typhimurium TA1535; 1.0 mM): 0.14
Increase in the number of yellow wells compared to the reference level (S. typhimurium TA1535; 2.0 mM): 0.89
DB (dicentric bridges in 1000 binucleate cells) ([2]; 100 µM): 4.0 ± 2.8
MN (number of micronuclei in 1000 binucleate cells) ([2]; 100 µM): 10.5 ± 2.1
NB (nuclear buds in 1000 binucleate cells) ([2]; 100 µM): 5.5 ± 2.1
NDI (nuclear division index) ([2]; 100 µM): 1.54
DB (dicentric bridges in 1000 binucleate cells) ([2]; 150 µM): 2.5 ± 2.1
MN (number of micronuclei in 1000 binucleate cells) ([2]; 150 µM): 6.5 ± 2.1
NB (nuclear buds in 1000 binucleate cells) ([2]; 150 µM): 6.5 ± 2.1
NDI (nuclear division index) ([2]; 150 µM): 1.54
DB (dicentric bridges in 1000 binucleate cells) ([2]; 200 µM): 3.0 ± 1.4
MN (number of micronuclei in 1000 binucleate cells) ([2]; 200 µM): 8.5 ± 0.7
NB (nuclear buds in 1000 binucleate cells) ([2]; 200 µM): 4.0 ± 1.4
NDI (nuclear division index) ([2]; 200 µM): 1.60
Tyrosinase inhibition with L-DOPA [%] (tyrosinase from mushroom; L-DOPA): 53.02±1.99% (500 µM)
IC50 (tyrosinase from mushroom; [5]): 440 µM
Tyrosinase inhibition with L-tyrosine [%] (tyrosinase from mushroom; L-tyrosine): 75.45±1.80% (500 µM)
IC50 (tyrosinase from mushroom; [6]): 164 µM
RM0 [3]: 2.12
% Viability [mean] ([4]; 100 µM): 84.7%
% Viability [mean] ([4]; 150 µM): 69.9%
% Viability [mean] ([4]; 200 µM): 87.2%
Increase in the number of yellow wells compared to the reference level (E. coli WP2; 0.5 mM): 0.48
Increase in the number of yellow wells compared to the reference level (E. coli WP2; 1.0 mM): 1.03
Increase in the number of yellow wells compared to the reference level (E. coli WP2; 2.0 mM): 0.79
Increase in the number of yellow wells compared to the reference level (S. typhimurium TA1537; 0.5 mM): 0.33
Increase in the number of yellow wells compared to the reference level (S. typhimurium TA1537; 1.0 mM): 0.00
Increase in the number of yellow wells compared to the reference level (S. typhimurium TA1537; 2.0 mM): 1.00

CCC(CO)NC(=O)/C=C/c1ccc(Cl)cc1Cl (stereo not shown) [H-285/20, (2E)-3-(2,4-dichlorophenyl)-N-(1-hydroxybutan-2-yl)prop-2-enamide]
Cytotoxicity study in B16F10 cells % viability ([1]; 150 µM): 84.2%
Cytotoxicity study in B16F10 cells % viability ([1]; 200 µM): 74.8%
Cytotoxicity study in B16F10 cells % viability ([1]; 250 µM): 24.6%
Tyrosinase inhibition with L-DOPA [%] (tyrosinase from mushroom; L-DOPA): 0.21±5.64% (500 µM)
Tyrosinase inhibition with L-tyrosine [%] (tyrosinase from mushroom; L-tyrosine): 14.56±1.63% (500 µM)
RM0 [3]: 3.08

CCC(CO)NC(=O)/C=C/c1ccc(C)cc1 (stereo not shown) [H-409/21, (2E)-N-(1-hydroxybutan-2-yl)-3-(4-methylphenyl)prop-2-enamide]
Cytotoxicity study in B16F10 cells % viability ([1]; 150 µM): 83.2%
Cytotoxicity study in B16F10 cells % viability ([1]; 200 µM): 95.3%
Cytotoxicity study in B16F10 cells % viability ([1]; 250 µM): 103.4%
Tyrosinase inhibition with L-DOPA [%] (tyrosinase from mushroom; L-DOPA): 21.81±2.31% (500 µM)
Tyrosinase inhibition with L-tyrosine [%] (tyrosinase from mushroom; L-tyrosine): 15.31±8.27% (500 µM)
RM0 [3]: 2.49

O=C(/C=C/c1ccccc1)NCCCCO [Compound A-43, (2E)-N-(4-hydroxybutyl)-3-phenylprop-2-enamide]
Cytotoxicity study in B16F10 cells % viability ([1]; 150 µM): 108.9%
Cytotoxicity study in B16F10 cells % viability ([1]; 200 µM): 105.7%
Cytotoxicity study in B16F10 cells % viability ([1]; 250 µM): 103.2%
Tyrosinase inhibition with L-DOPA [%] (tyrosinase from mushroom; L-DOPA): 34.55±4.18% (500 µM)
IC50 (tyrosinase from mushroom; [5]): 1560 µM
Tyrosinase inhibition with L-tyrosine [%] (tyrosinase from mushroom; L-tyrosine): 35.50±1.37% (500 µM)
IC50 (tyrosinase from mushroom; [6]): 1030 µM
RM0 [3]: 1.60

O=C(/C=C/c1ccc(Cl)cc1)NCCCCCCO [H-426/21, (2E)-3-(4-chlorophenyl)-N-(6-hydroxyhexyl)prop-2-enamide]
Cytotoxicity study in B16F10 cells % viability ([1]; 150 µM): 30.3%
Cytotoxicity study in B16F10 cells % viability ([1]; 200 µM): 28.2%
Cytotoxicity study in B16F10 cells % viability ([1]; 250 µM): 28.3%
Tyrosinase inhibition with L-DOPA [%] (tyrosinase from mushroom; L-DOPA, 125 µM): 30.66±1.82% (125 µM)
Tyrosinase inhibition with L-tyrosine [%] (tyrosinase from mushroom; L-tyrosine, 125 µM): 39.89±3.21% (125 µM)
RM0 [3]: 3.02

CCC(O)CNC(=O)/C=C/c1ccc(C)cc1 (stereo not shown) [Compound A-63, (2E)-N-(2-hydroxybutyl)-3-(4-methylphenyl)prop-2-enamide]
Cytotoxicity study in B16F10 cells % viability ([1]; 150 µM): 90.2%
Cytotoxicity study in B16F10 cells % viability ([1]; 200 µM): 87.3%
Cytotoxicity study in B16F10 cells % viability ([1]; 250 µM): 87.4%
Tyrosinase inhibition with L-DOPA [%] (tyrosinase from mushroom; L-DOPA): 21.19±1.26% (500 µM)
Tyrosinase inhibition with L-tyrosine [%] (tyrosinase from mushroom; L-tyrosine): 30.22±10.22% (500 µM)
RM0 [3]: 2.39
